# Assay results: publication PMC4819940 (Cancer Chemotherapy and Pharmacology, 2016)
# Key:
# [1] = Plasma pharmacokinetics of AZD5363 after a single dose and multiple doses; format: in vivo, human
# From the text: […] area under the plasma concentration–time curve (AUC), maximum plasma (peak) drug concentration (Cmax), time to reach Cmax (tmax), apparent plasma clearance (CL/F), and oral volume of distribution at steady state (Vss/F).
# [2] = test system: advanced solid tumors in Japanese patients; assay: Objective tumor response (RECIST version 1.1); format: in vivo, human; conditions: for Best objective response: Non-response, Not evaluable / Best objective response: Non-response, RECIST progression / Best objective response: Non-response, Stable disease ≥6 weeks / Best objective response: Complete response / Best objective response: Partial response: patients, count (%); for Best objective response: Complete response / Best objective response: Partial response: response confirmed after 4 weeks; for time to partial response after starting AZD5363: Akt1 (E17K) positive; for duration of partial response at data cutoff: data cutoff July 7, 2014
# From the text: Objective tumor response assessments were based on Response Evaluation Criteria in Solid Tumors (RECIST) version 1.1.
# Tumor samples were screened for mutations using a clinical sequencing platform consisting of an in-house cancer gene panel (National Cancer Center OncoPanel version 2) based on an Agilent Sure Select system and an Illumina MiSeq sequencer. The target regions to be captured were the exons of 90 targetable or actionable genes and the introns of 10 protein kinase genes. Samples with <10 % tumor cell content were excluded from the analysis.
# [3] = test system: Western patients with advanced solid malignancies; parameters: method as in earlier work; conditions: 4/3 dosing schedule; cited from earlier work
# [4] = single dose, Total, n=41, median (range)
# [5] = breast cancer patient, 640 mg bid intermittent 2/5
# [6] = ovarian cancer patient, 480 mg bid intermittent 4/3
compound,measurement,setting,value
NC1(C(=O)N[C@@H](CCO)c2ccc(Cl)cc2)CCN(c2ncnc3[nH]ccc23)CC1 [AZD5363],t half,"[1]; single dose, 360 mg bid intermittent 4/3 cohort, n=8, median (range)",9.7 (5.3‒11.1) hours
same,t half,"[1]; single dose, 400 mg bid continuous cohort, n=5, median (range)",9.6 (9.0‒13.0) hours
same,t half,"[1]; single dose, 480 mg bid intermittent 4/3 cohort, n=6, median (range)",9.3 (8.1‒11.6) hours
same,t half,"[1]; single dose, 640 mg bid intermittent 2/5 cohort, n=6, median (range)",10.1 (9.4‒13.7) hours
same,Tmax,[1]; [4],1.98 (0.87‒4.02) hours
same,t half,[1]; [4],9.9 (5.3‒13.7) hours
same,duration of distribution phase following Cmax,"[1]; single oral doses, generally lasting up to",6 to 8 h
same,"Best objective response: Non-response, Not evaluable",[2]; 80 mg bid continuous,0 (0.0)
same,"Best objective response: Non-response, RECIST progression",[2]; 80 mg bid continuous,1 (33.3)
same,"Best objective response: Non-response, Stable disease ≥6 weeks",[2]; 80 mg bid continuous,2 (66.7)
same,Best objective response: Complete response,[2]; 80 mg bid continuous,0 (0.0)
same,Best objective response: Partial response,[2]; 80 mg bid continuous,0 (0.0)
same,"Best objective response: Non-response, Not evaluable",[2]; 240 mg bid continuous,1 (14.3)
same,"Best objective response: Non-response, RECIST progression",[2]; 240 mg bid continuous,5 (71.4)
same,"Best objective response: Non-response, Stable disease ≥6 weeks",[2]; 240 mg bid continuous,1 (14.3)
same,Best objective response: Complete response,[2]; 240 mg bid continuous,0 (0.0)
same,Best objective response: Partial response,[2]; 240 mg bid continuous,0 (0.0)
same,"Best objective response: Non-response, Not evaluable",[2]; 320 mg bid continuous,2 (66.7)
same,"Best objective response: Non-response, RECIST progression",[2]; 320 mg bid continuous,1 (33.3)
same,"Best objective response: Non-response, Stable disease ≥6 weeks",[2]; 320 mg bid continuous,0 (0.0)
same,Best objective response: Complete response,[2]; 320 mg bid continuous,0 (0.0)
same,Best objective response: Partial response,[2]; 320 mg bid continuous,0 (0.0)
same,"Best objective response: Non-response, Not evaluable",[2]; 360 mg bid intermittent 4/3,2 (25.0)
same,"Best objective response: Non-response, RECIST progression",[2]; 360 mg bid intermittent 4/3,3 (37.5)
same,"Best objective response: Non-response, Stable disease ≥6 weeks",[2]; 360 mg bid intermittent 4/3,3 (37.5)
same,Best objective response: Complete response,[2]; 360 mg bid intermittent 4/3,0 (0.0)
same,Best objective response: Partial response,[2]; 360 mg bid intermittent 4/3,0 (0.0)
same,"Best objective response: Non-response, Not evaluable",[2]; 400 mg bid continuous,1 (25.0)
same,"Best objective response: Non-response, RECIST progression",[2]; 400 mg bid continuous,3 (75.0)
same,"Best objective response: Non-response, Stable disease ≥6 weeks",[2]; 400 mg bid continuous,0 (0.0)
same,Best objective response: Complete response,[2]; 400 mg bid continuous,0 (0.0)
same,Best objective response: Partial response,[2]; 400 mg bid continuous,0 (0.0)
same,"Best objective response: Non-response, Not evaluable",[2]; 480 mg bid intermittent 4/3,0 (0.0)
same,"Best objective response: Non-response, RECIST progression",[2]; 480 mg bid intermittent 4/3,1 (16.7)
same,"Best objective response: Non-response, Stable disease ≥6 weeks",[2]; 480 mg bid intermittent 4/3,4 (66.7)
same,Best objective response: Complete response,[2]; 480 mg bid intermittent 4/3,0 (0.0)
same,Best objective response: Partial response,[2]; 480 mg bid intermittent 4/3,1 (16.7)
same,"Best objective response: Non-response, Not evaluable",[2]; 640 mg bid intermittent 2/5,1 (16.7)
same,"Best objective response: Non-response, RECIST progression",[2]; 640 mg bid intermittent 2/5,4 (66.7)
same,"Best objective response: Non-response, Stable disease ≥6 weeks",[2]; 640 mg bid intermittent 2/5,0 (0.0)
same,Best objective response: Complete response,[2]; 640 mg bid intermittent 2/5,0 (0.0)
same,Best objective response: Partial response,[2]; 640 mg bid intermittent 2/5,1 (16.7)
same,"Best objective response: Non-response, Not evaluable",[2]; Total,7 (18.9)
same,"Best objective response: Non-response, RECIST progression",[2]; Total,18 (48.6)
same,"Best objective response: Non-response, Stable disease ≥6 weeks",[2]; Total,10 (27.0)
same,Best objective response: Complete response,[2]; Total,0 (0.0)
same,Best objective response: Partial response,[2]; Total,2 (5.4)
same,patients with confirmed partial response,"[2]; all cohorts, both Akt1 (E17K) mutation positive",two
same,"best response, decrease in the SLD of target lesions",[2]; [5],60.8%
same,day on which progression was confirmed,[2]; [5],378 days
same,time to partial response after starting AZD5363,[2]; [5],44 days
same,patients with stable disease for 12 weeks or more,[2]; of the 10 patients with stable disease,Seven
same,time partial response was maintained,[2]; one patient in the 480 mg bid 4/3 dosing cohort,> 2 years
same,"best response, decrease in the sum of the longest diameter (SLD) of target lesions",[2]; [6],55.8%
same,duration of response,"[2]; ovarian cancer patient, 480 mg bid intermittent 4/3, as of September 2015, according to the investigator",1177 days
same,time to partial response after starting AZD5363,[2]; [6],79 days
same,duration of partial response at data cutoff,[2]; patient in the 480 mg bid intermittent 4/3 cohort,675 days
same,duration of partial response at data cutoff,[2]; patient in the 640 mg bid intermittent 2/5 cohort,127 days
same,patients with stable disease,[2]; three on continuous dosing and seven on intermittent dosing,Ten
same,patients with a complete response,[2]; tumor response analysis set,no patients
same,patients with disease progression,"[2]; tumor response analysis set, 37 patients",48.6%
same,response of PIK3CA mutation positive patients to AZD5363 treatment,[2]; two additional patients identified as PIK3CA mutation positive,did not respond
same,recommended dose for AZD5363 monotherapy,[3],480 mg bid
